The record followed here is patent US8765684B2, “Solid materials of {[(2S,5R,8S,11S)-5-benzyl-11-(3-guanidino-propyl)-8-isopropyl-7-methyl-3,6,9,12,15-pentaoxo-1,4,7,10,13-pentaaza-cyclopentadec-2-yl]-acetic acid} and methods for obtaining them” (Merck Patent GmbH, priority 2009, dated 2014).

The format of series [1] is physicochemical. The following applies: 25° C., listed as S2.
Excerpt: Preferably, the anhydrates or ansolvates according to the invention and especially the crystalline form A1 can be characterised, alternatively or additionally, by dynamic vapour sorption experiments. The results can be obtained by standard techniques as described in Rolf Hilfiker, ‘Polymorphism in the Pharmaceutical Industry’, Wiley-VCH. Weinheim 2006 (Chapter 9: Water Vapour Sorption, and references therein). […] Eur. criteria.
Preferably, the tetrasolvates according to the invention, more preferably the tetrahydrates according to the invention and especially the crystalline form S3 can be characterised, alternatively or additionally, by dynamic vapour sorption experiments. The results can be obtained by standard techniques as described in Rolf Hilfiker, ‘Polymorphism in the Pharmaceutical Industry’, Wiley-VCH. Weinheim 2006 (Chapter 9: Water Vapour Sorption, and references therein).
Dynamic Vapor Sorption measurements are preferably obtained on a SMS DVS Intrinsic system. The results are preferably obtained by standard techniques as described by Rolf Hilfiker “Polymorphism in the Pharmaceutical Industry” Wiley-VCH Weinheim 2006 (Chapter 9: Water Vapour Sorption, and references therein.) Approx. 2-10 mg of samples are preferably weighed into an Aluminium 100 μL pan and placed in the sample incubator of the DVS instrument with microbalance. A nitrogen overall flow rate of 200 mL/min (combined dry and humid stream) is preferably used for humidification. Water vapor sorption isotherms are preferably acquired at 25° C. in the range 0% relative humidity to 98% relative humidity mostly with 10% relative humidity steps. For all relative humidity steps, an equilibrium condition of dm/dt≦0.0005 wt %/min are preferably used, with a minimum relative humidity step time of 10 minutes and a maximum relative humidity step time of 360 minutes which is preferably used as a timeout if the dm/dt criterai mentioned above is not been reached.
A SMS DVS I system is used for the dynamic vapour experiments regarding crystalline form S3. The results have been obtained by standard techniques as described in Rolf Hilfiker, ‘Polymorphism in the Pharmaceutical Industry’, Wiley-VCH. Weinheim 2006 (Chapter 9: Water Vapour Sorption, and references therein). […] During the water adsorption cycle there is shown an assembly of water molecules (ca. 10 wt%) in the lattice at elevated rh. In the second desorption cycle there is a loss of this amount of water.
(§1) A SMS DVS Intrinsic is used for the dynamic vapour experiments. The results are obtained by standard techniques as described in Rolf Hilfiker, ‘Polymorphism in the Pharmaceutical Industry’, Wiley-VCH. Weinheim 2006 (Chapter 9: Water Vapour Sorption, and references therein). […] Upon water vapour adsorption, an assembly of water molecules in the lattice is observed, with a maximum weight gain of approx. 8 wt % at elevated rh. In the second desorption cycle a total mass loss of approx. 9.9 wt % is observed. For a Cilengitide Dihydrate Di-Methanolate, the calculated Methanol content equals 9.3 wt %.
as §1, with “6.4” for “8”, “9.2” for “9.9”, “Di-Ethanolate,” for “Di-Methanolate,”, “Ethanol” for “Methanol”, “12.5” for “9.3”

Series [2] can be described thus: Competitive slurry conversion of pseudopolymorphic form and form A1 (1:1) in Water/Methanol and Water/Ethanol mixtures. The conditions noted are these: 1:1 pseudopolymorphic form + A1. The format is physicochemical. How it is done: b) Additionally, crystalline tetrasolvates according invention and especially crystalline forms S1 and S2 can be manufactured by competitive slurry conversion experiments with a mixture of a pseudopolymorphic form (for example S1, S2, S3 or mixtures of these) with form A1 (1:1) in Water/Methanol and Water/Ethanol mixtures with different alcohol contents at different temperatures, respectively.
Approx. 20 mg of a pseudopolymorphic form (for example S1, S2, S3 or mixtures of these) and 20 mg of form A1 of Cilengitide are dispersed in 300 μl Water/alcohol mixture at 0° C. or room temperature (25° C.). The dispersion is stirred for 24 h and additionally for 3 weeks at RT (25° C.) (long-term experiment) by a magnetic stirrer and finally filtered
Approx. 20 mg of a pseudopolymorphic form (for example S1, S2, S3 or mixtures of these) and 20 mg of form A1 of Cilengitide are dispersed in 300 μl Water/alcohol mixture at 50° C. The dispersion is stirred for 24 h by a magnetic stirrer and finally filtered.
Additionally form A1 can be manufactured by competitive slurry conversion experiments with a mixture of a pseudopolymorphic form (for example S1, S2, S3 or mixtures of these) and form A1 (1:1) in Water/Methanol and Water/Ethanol mixtures with different alcohol contents at different temperatures. In the following table the conditions for the experiments leading to the pure form A1 are listed.
Approx. 20 mg of a pseudopolymorphic form (for example S1, S2, S3 or mixtures of these) and 20 mg of form A1 of Cilengitide are dispersed in 300 μl Water/alcohol mixture at 0° C., room temperature and 50° C. The dispersion is stirred for 24 h and additionally for 3 weeks at RT (25° C.) (long-term experiment) by a magnetic stirrer and finally filtered.

On to “cyclo-(Arg-Gly-Asp-DPhe-NMe-Val) [crystalline form S2]”, for which, in series [1] (elevated rh), the “Maximum weight gain upon water vapour adsorption” value is listed as “approx. 6.4 wt %”. For the same substance, the “Mass loss in the first desorption cycle” value in series [1] (water vapour sorption) was “approx. 6.5 wt %”. Besides, the “Total mass loss in the second desorption cycle” value in series [1] (water vapour sorption) was “approx. 9.2 wt %”. Further, the “Ethanol in the mixture with Water leading to form S2” value in series [2] (0° C. for 1 day) is reported as 20-80 v %; in series [2] (RT for 3 weeks) it was 40-70 v %; in series [2] (RT for 1 day), 40-80 v %.
